Test results from article PMC3956125 (Molecular cancer therapeutics, 2013).

Key:
[1] = tested on: 786-O cells; assay: 3H-thymidine incorporation proliferation assay; type: cell-based, human
[2] = tested on: A498 cells; assay: 3H-thymidine incorporation proliferation assay; type: cell-based, human
[3] = tested on: 786-O cells; assay: Western blot / immunofluorescence of marker proteins; type: cell-based, human
[4] = tested on: SKOV3 ovarian cancer; settings: SKOV3 xenograft; cited from earlier work
[5] = tested on: A498 cells; assay: Western blot / immunofluorescence of marker proteins; type: cell-based, human
[6] = tested on: A498 cells; assay: Annexin-FITC/PI apoptosis assay; type: cell-based, human; settings: 48 hours
[7] = biological target: CYP2C19 (Homo sapiens, UniProt P33261); assay: multiple CYP assay in human liver microsomes; settings: 10 μM
CYP2C19, sequence (P33261 whole entry): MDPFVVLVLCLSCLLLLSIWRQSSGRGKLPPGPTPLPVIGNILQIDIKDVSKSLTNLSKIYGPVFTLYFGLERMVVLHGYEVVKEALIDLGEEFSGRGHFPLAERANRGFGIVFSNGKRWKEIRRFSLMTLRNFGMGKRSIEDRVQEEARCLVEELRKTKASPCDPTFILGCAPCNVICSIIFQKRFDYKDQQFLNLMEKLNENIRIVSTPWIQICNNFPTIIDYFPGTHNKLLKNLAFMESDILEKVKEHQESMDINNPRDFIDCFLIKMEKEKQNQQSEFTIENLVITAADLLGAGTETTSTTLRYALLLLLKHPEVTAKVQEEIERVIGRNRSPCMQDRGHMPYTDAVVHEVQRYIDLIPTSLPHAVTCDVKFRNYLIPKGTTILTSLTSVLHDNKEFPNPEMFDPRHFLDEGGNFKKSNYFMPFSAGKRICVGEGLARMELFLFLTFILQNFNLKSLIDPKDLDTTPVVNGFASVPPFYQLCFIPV

[8] = tested on: 786-O tumor model; assay: subcutaneous xenograft anti-tumor activity; type: in vivo, mouse; settings: 4 weeks
[9] = tested on: 786-O cells; assay: cell cycle analysis by flow cytometry; type: cell-based, human; settings: increasing concentrations, 24 hours
[10] = tested on: panel of 320 kinases; assay: kinase selectivity profile, single dose; type: biochemical
[11] = pharmacokinetic analysis of plasma levels; settings: Sprague-Dawley rats
[12] = tested on: 786-O cells; assay: intracellular glucose measurement; type: cell-based, human; settings: 24 hours
[13] = biological target: CYP2D6 (Homo sapiens, UniProt P10635); assay: multiple CYP assay in human liver microsomes; settings: 10 μM
CYP2D6, sequence (P10635 whole entry): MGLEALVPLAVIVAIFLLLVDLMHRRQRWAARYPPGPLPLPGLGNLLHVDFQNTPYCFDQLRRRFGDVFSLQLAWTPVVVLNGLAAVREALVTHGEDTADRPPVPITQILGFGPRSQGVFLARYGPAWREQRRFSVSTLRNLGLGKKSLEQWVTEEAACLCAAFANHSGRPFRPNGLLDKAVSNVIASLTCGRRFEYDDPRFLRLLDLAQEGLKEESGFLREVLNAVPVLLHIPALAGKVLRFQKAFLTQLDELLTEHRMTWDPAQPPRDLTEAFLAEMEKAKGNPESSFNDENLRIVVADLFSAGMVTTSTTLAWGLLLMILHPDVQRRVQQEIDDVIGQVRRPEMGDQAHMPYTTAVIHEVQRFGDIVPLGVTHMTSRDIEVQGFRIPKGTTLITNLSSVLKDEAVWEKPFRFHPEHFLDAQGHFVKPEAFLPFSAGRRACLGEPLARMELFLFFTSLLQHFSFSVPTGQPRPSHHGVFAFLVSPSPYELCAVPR

[14] = metabolic stability; settings: human liver microsomes, after 60 min of incubation
[15] = biological target: CYP2C9 (Homo sapiens, UniProt P11712); assay: multiple CYP assay in human liver microsomes; settings: 10 μM
CYP2C9, sequence (P11712 whole entry): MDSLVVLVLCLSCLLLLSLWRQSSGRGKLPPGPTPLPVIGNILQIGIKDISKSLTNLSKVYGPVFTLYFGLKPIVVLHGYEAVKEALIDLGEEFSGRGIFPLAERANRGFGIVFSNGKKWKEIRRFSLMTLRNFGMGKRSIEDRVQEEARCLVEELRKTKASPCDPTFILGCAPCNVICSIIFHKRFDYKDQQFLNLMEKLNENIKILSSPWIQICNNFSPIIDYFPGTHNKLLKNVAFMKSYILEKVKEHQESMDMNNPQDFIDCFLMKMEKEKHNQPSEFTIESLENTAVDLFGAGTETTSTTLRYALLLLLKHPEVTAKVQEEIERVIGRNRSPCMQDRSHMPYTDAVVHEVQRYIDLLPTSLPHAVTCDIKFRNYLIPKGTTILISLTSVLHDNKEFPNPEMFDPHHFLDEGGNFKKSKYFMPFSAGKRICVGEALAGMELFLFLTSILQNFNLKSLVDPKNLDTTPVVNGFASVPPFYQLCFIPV

[16] = tested on: A498 cells; assay: cell cycle analysis by flow cytometry; type: cell-based, human; settings: increasing concentrations, 24 hours
[17] = biological target: CYP3A4 (Homo sapiens, UniProt P08684); assay: multiple CYP assay in human liver microsomes; settings: 10 μM
CYP3A4, sequence (P08684 whole entry): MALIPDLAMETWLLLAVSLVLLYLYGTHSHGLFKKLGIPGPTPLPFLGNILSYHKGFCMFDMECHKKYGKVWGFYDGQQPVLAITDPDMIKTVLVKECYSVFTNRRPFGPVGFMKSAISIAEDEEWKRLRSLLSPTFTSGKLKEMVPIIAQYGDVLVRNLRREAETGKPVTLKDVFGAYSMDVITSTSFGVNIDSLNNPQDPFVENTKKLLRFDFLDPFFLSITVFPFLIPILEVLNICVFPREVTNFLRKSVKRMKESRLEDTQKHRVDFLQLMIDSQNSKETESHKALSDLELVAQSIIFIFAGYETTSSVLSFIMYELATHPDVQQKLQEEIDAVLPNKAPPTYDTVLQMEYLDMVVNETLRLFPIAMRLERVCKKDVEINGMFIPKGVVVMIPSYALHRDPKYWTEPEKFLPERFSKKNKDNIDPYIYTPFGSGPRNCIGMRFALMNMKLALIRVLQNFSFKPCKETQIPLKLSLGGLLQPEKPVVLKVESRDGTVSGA

[18] = tested on: A498 cells; assay: intracellular glucose measurement; type: cell-based, human; settings: 24 hours
[19] = tested on: A498 tumor model; assay: subcutaneous xenograft anti-tumor activity; type: in vivo, mouse; settings: 4 weeks
[20] = tested on: pancreatic and ovarian cancer cells; settings: cited from earlier work
[21] = biological target: hERG (Homo sapiens, UniProt Q12809); assay: hERG inhibition; type: cell-based; settings: read-out: IC50 for hERG inhibition; patch-clamp
hERG, sequence (Q12809 whole entry): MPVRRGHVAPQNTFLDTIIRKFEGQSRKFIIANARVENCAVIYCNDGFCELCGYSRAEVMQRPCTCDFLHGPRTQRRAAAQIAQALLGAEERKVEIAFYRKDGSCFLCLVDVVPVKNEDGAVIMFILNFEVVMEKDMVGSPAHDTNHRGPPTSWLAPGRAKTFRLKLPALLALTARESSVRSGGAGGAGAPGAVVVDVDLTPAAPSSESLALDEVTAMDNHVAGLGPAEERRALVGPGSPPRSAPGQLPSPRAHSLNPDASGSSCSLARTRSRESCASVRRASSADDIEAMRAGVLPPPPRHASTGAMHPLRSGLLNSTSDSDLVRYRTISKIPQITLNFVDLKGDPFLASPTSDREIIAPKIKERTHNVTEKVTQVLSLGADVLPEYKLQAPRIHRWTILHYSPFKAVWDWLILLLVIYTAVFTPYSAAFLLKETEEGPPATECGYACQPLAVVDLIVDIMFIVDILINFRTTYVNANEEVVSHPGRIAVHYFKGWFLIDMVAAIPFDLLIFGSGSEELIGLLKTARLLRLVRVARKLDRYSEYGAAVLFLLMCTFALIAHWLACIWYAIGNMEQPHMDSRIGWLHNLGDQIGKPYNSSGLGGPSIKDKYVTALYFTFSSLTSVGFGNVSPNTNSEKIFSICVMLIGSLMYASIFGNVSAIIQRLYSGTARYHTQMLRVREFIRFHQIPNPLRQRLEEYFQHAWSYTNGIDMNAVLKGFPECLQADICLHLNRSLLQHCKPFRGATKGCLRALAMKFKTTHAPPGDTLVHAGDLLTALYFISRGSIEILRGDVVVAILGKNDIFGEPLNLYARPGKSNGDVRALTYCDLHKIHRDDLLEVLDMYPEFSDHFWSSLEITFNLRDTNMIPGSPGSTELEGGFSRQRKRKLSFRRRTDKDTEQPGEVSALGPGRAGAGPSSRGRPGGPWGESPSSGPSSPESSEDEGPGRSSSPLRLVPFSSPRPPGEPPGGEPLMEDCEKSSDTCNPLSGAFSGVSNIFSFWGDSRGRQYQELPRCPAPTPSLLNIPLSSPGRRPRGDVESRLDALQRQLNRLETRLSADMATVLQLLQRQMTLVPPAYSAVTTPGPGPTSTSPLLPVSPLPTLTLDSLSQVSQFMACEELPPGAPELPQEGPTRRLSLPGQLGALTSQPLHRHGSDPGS

[22] = biological target: T1, CYP1A2 (Homo sapiens, UniProt P05177); assay: multiple CYP assay in human liver microsomes; settings: 10 μM
T1 sequence (P05177 1-516): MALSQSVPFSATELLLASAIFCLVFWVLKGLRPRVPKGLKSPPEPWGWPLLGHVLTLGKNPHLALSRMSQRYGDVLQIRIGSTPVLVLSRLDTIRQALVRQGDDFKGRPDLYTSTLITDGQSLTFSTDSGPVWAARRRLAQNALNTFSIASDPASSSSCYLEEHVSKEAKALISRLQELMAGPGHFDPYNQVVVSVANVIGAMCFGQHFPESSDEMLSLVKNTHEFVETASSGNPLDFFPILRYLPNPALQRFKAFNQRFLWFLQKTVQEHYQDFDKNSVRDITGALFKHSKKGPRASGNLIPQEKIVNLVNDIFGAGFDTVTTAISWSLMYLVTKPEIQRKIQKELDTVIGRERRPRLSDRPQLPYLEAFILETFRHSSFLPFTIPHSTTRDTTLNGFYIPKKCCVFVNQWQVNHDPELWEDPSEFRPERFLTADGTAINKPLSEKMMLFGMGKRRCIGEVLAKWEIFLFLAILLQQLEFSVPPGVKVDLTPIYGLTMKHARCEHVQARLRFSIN

[23] = tested on: 786-O cells; assay: Annexin-FITC/PI apoptosis assay; type: cell-based, human; settings: 48 hours
[24] = biological target: T2, CYP2B6 (Homo sapiens, UniProt P20813); assay: multiple CYP assay in human liver microsomes; settings: 10 μM
T2 sequence (P20813 1-491): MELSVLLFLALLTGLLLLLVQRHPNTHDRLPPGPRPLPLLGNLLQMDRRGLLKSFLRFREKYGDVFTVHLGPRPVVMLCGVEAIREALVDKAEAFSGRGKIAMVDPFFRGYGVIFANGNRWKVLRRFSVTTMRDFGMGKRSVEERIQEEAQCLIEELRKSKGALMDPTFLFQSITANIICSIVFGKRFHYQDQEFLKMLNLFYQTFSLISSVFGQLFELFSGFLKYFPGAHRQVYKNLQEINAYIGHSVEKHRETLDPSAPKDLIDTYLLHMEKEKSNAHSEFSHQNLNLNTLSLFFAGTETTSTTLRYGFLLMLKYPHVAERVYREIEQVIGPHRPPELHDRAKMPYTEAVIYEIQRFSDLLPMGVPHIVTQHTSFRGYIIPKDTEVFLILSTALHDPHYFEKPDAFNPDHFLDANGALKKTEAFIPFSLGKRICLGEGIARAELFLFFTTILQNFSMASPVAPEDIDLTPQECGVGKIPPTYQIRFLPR

[25] = 20 mg/kg i.p. three times a week, p<0.05
[26] = tumor tissue sections, 20 mg/kg i.p.

**Q.** What does the source list for “GSK-3β siRNA: Qiagen siRNA against GSK-3β, target sequence 5'-CCCAAATGTCAAACTACCAAA-3' (sense CAAAUGUCAAACUACCAAATT; antisense UUUGGUAGUUUGACAUUUGGG; chemistry not given here) [reference compound]”?
**A.** inhibition of proliferation ([1]; siRNA 100 nM, 72 hours, p<0.01): slight yet significant inhibition; inhibition of proliferation ([2]; siRNA 100 nM, 72 hours, A498, p<0.01): slight yet significant inhibition

**Q.** Which inhibition in proliferation ([1]; 500 nM, 72 hours) does the source give for Cn1cc(C2=C(c3coc4ccc(F)cc34)C(=O)NC2=O)c2cc3c(cc21)OCO3 [9-ING-41] here?
**A.** ~ 40%

**Q.** And the inhibition of proliferation ([1]; 1000 nM, 72 hours)?
**A.** almost complete inhibition

**Q.** What about the IC50 ([1]; read-out: cell growth inhibition IC50) of the same molecule?
**A.** < 1 µM

**Q.** And the “phosphorylation of AMPK-α and AMPK-β” value ([3]; 24-48 hours, Western blot)?
**A.** increase in phosphorylation

**Q.** And the “cyclin D1 protein expression” value ([3]; 24 hours, Western blot)?
**A.** down-regulated

**Q.** What about the Id-1 expression ([3]; 48 hours, Western blot) of the same molecule?
**A.** decreased

**Q.** And the Ksp-cadherin expression ([3]; 48 hours, Western blot)?
**A.** dose-dependent increase

**Q.** And the “LC3B levels (autophagy)” value ([3]; Western blot and immunofluorescence)?
**A.** increased levels

**Q.** And the “tumor progression in vivo” value [4]?
**A.** attenuate tumor progression

**Q.** What about the “phosphorylation of AMPK-α and AMPK-β” value ([5]; 24-48 hours, A498, Western blot) of the same molecule?
**A.** increase in phosphorylation

**Q.** And the “cyclin D1 protein expression” value ([5]; 24 hours, A498, Western blot)?
**A.** down-regulated

**Q.** And the Id-1 expression ([5]; 48 hours, A498, Western blot)?
**A.** decreased

**Q.** What about the Ksp-cadherin expression ([5]; 48 hours, A498, Western blot) of the same molecule?
**A.** dose-dependent increase

**Q.** And the “LC3B levels (autophagy)” value ([5]; A498, Western blot and immunofluorescence)?
**A.** increased levels

**Q.** And the induction of apoptosis [6]?
**A.** No significant induction of apoptosis

**Q.** And the CYP activity [7]?
**A.** ≥ 50 % of the control

**Q.** And the “tumor growth vs control group” value [8, 25]?
**A.** significant reduction of tumor growth

**Q.** What about the “abundance of Ki67-positive nuclei vs control group” value [8, 26] of the same molecule?
**A.** significantly lower

**Q.** And the “fraction of cells in the S phase” value [9]?
**A.** decreased significantly

**Q.** And the “number of kinases with less than 50% remaining activity” value ([10]; 10 μM single dose, duplicates, panel of 320 kinases)?
**A.** 35

**Q.** And the “discrimination between GSK-3α and GSK-3β” value ([10]; SI Table S1, 10 μM)?
**A.** inhibits them equally

**Q.** And the elimination half-life [11]?
**A.** 4.85 h

**Q.** What about the volumes of distribution [11] of the same molecule?
**A.** ≥ 10 L/kg

**Q.** What about the intracellular glucose [12] of the same molecule?
**A.** dose-dependent increase

**Q.** What about the CYP activity [13] of the same molecule?
**A.** ≥ 50 % of the control

**Q.** What about the parent compound remained [14] of the same molecule?
**A.** 78.9%

**Q.** And the CYP activity [15]?
**A.** ≥ 50 % of the control

**Q.** And the “fraction of cells in the S phase” value [16]?
**A.** decreased significantly

**Q.** What about the CYP activity [17] of the same molecule?
**A.** 32 % of the control

**Q.** What about the intracellular glucose [18] of the same molecule?
**A.** dose-dependent increase

**Q.** And the inhibition in proliferation ([2]; 500 nM, 72 hours, A498)?
**A.** ~ 40%

**Q.** And the inhibition of proliferation ([2]; 1000 nM, 72 hours, A498)?
**A.** almost complete inhibition

**Q.** And the IC50 ([2]; read-out: cell growth inhibition IC50, A498)?
**A.** < 1 µM

**Q.** And the “tumor growth vs control group” value [19, 25]?
**A.** significant reduction of tumor growth

**Q.** What about the “abundance of Ki67-positive nuclei vs control group” value [19, 26] of the same molecule?
**A.** significantly lower

**Q.** What about the antiproliferative activity [20] of the same molecule?
**A.** potent antiproliferative agent

**Q.** And the IC50 [21]?
**A.** 21 µM

**Q.** What about the CYP activity [22] of the same molecule?
**A.** ≥ 50 % of the control

**Q.** And the “percentage of early apoptotic cells” value ([23]; 1000 nM, 786-O (DMSO 5.54%))?
**A.** 11.6%

**Q.** And the induction of apoptosis ([23]; 786-O)?
**A.** No significant induction of apoptosis

**Q.** What about the CYP activity [24] of the same molecule?
**A.** ≥ 50 % of the control
